Experimental data: PubChem BioAssay AID2060599 (Molecular Pharmacology Branch, DTP, NCI, 2025)

System: 817829-284-R-J1-PDC complex spheroids, viability
Experiment: Anticancer human tumor 817829-284-R-J1-PDC patient-derived colon adenocarcinoma cell line growth inhibition [CLK]
Conditions: for IC50: curve of first compound; for viability, T/C: stronger effect = lower value
Procedure, shortened: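 Patient-derived tumor cells grown as complex spheroids with HUVEC endothelial cells and mesenchymal stem cells, treated with drug combinations. Concentrations descend in half-log steps from near clinical Cmax, or from 10 microM if Cmax unknown.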
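Further: spheroids exposed to the agents for seven days before readout.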

For C#Cc1c(F)ccc2cc(O)cc(-c3ncc4c(N5CC6CCC(C5)N6)nc(OCC56CCCN5CC(F)C6)nc4c3F)c12 (configuration not stated) + CN1CCN(c2cc(C(=O)Nc3cc4cc(-c5cnn(C)c5)ccc4cn3)ccn2)CC1, the IC50 (second compound 0.0316 µM) was 4960 nM, the IC50 (second compound 0.1 µM) was < 31.6 nM and the IC50 (second compound 0.316 µM) was < 31.6 nM. The IC50 (second compound 1 µM) was < 31.6 nM, the IC50 (second compound 3.16 µM) was < 31.6 nM and the IC50 (second compound 10 µM) was < 31.6 nM. It also gave a viability, T/C (second compound 0.0316 µM, first compound 0.0316 µM) of 83.1%, a viability, T/C (second compound 0.0316 µM, first compound 0.1 µM) of 61% and a viability, T/C (second compound 0.0316 µM, first compound 0.316 µM) of 66.3%. For the same compound, the viability, T/C (second compound 0.0316 µM, first compound 1 µM) was 68.5%, the viability, T/C (second compound 0.0316 µM, first compound 3.16 µM) was 57.3% and the viability, T/C (second compound 0.0316 µM, first compound 10 µM) was 40.5%. The viability, T/C (second compound 0.1 µM, first compound 0.0316 µM) was 24.2%, the viability, T/C (second compound 0.1 µM, first compound 0.1 µM) was 19.4% and the viability, T/C (second compound 0.1 µM, first compound 0.316 µM) was 19.8%. For the same compound, the viability, T/C (second compound 0.1 µM, first compound 1 µM) was 17.4%, the viability, T/C (second compound 0.1 µM, first compound 3.16 µM) was 15.2% and the viability, T/C (second compound 0.1 µM, first compound 10 µM) was 11.8%. For the same compound, the viability, T/C (second compound 0.316 µM, first compound 0.0316 µM) was 2.71%, the viability, T/C (second compound 0.316 µM, first compound 0.1 µM) was 2.39% and the viability, T/C (second compound 0.316 µM, first compound 0.316 µM) was 2.14%. The viability, T/C (second compound 0.316 µM, first compound 1 µM) was 2.39%, the viability, T/C (second compound 0.316 µM, first compound 3.16 µM) was 2.31% and the viability, T/C (second compound 0.316 µM, first compound 10 µM) was 1.5%. It also gave a viability, T/C (second compound 1 µM, first compound 0.0316 µM) of 0.1%, a viability, T/C (second compound 1 µM, first compound 0.1 µM) of 0.14% and a viability, T/C (second compound 1 µM, first compound 0.316 µM) of 0.17%. It also gave a viability, T/C (second compound 1 µM, first compound 1 µM) of 0.12%, a viability, T/C (second compound 1 µM, first compound 3.16 µM) of 0.09% and a viability, T/C (second compound 1 µM, first compound 10 µM) of 0.09%. The viability, T/C (second compound 3.16 µM, first compound 0.0316 µM) was 0.15%, the viability, T/C (second compound 3.16 µM, first compound 0.1 µM) was 0.13% and the viability, T/C (second compound 3.16 µM, first compound 0.316 µM) was 0.15%. It also gave a viability, T/C (second compound 3.16 µM, first compound 1 µM) of 0.16%, a viability, T/C (second compound 3.16 µM, first compound 3.16 µM) of 0.13% and a viability, T/C (second compound 3.16 µM, first compound 10 µM) of 0.07%. The viability, T/C (second compound 10 µM, first compound 0.0316 µM) was 0.1%, the viability, T/C (second compound 10 µM, first compound 0.1 µM) was 0.11% and the viability, T/C (second compound 10 µM, first compound 0.316 µM) was 0.11%. The viability, T/C (second compound 10 µM, first compound 1 µM) was 0.16%, the viability, T/C (second compound 10 µM, first compound 3.16 µM) was 0.17% and the viability, T/C (second compound 10 µM, first compound 10 µM) was 0.13%.
